From the supplement of paper PMC3937590

Experiments:
Assay in all cases: -log10 GI50 (growth inhibition 50%) (-log10(M)); higher = more potent growth inhibition
HCC38 = tested on: HCC38
Outline: (§1)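 A value carrying a < qualifier equals the top dose tested. Each compound was tested in triplicate on breast cancer cell lines for 72 hours at nine doses in 1:5 serial dilution, using a luminescence read-out against a time-zero plate. Nonlinear least squares fitting of a Gompertz curve gave GI50, the molar concentration causing the set level of growth inhibition, which is reported as its negative logarithm. The logarithm is base 10.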

MDAMB134VI = tested on: MDAMB134VI
Outline: as §1

184A1 = tested on: 184A1
Outline: as §1

MCF7 = tested on: MCF7
Outline: as §1

MDAMB157 = tested on: MDAMB157
Outline: as §1

HCC70 = tested on: HCC70
Outline: as §1

SUM149PT = tested on: SUM149PT
Outline: as §1

HS578T = tested on: HS578T
Outline: as §1

MX1 = tested on: MX1
Outline: as §1

HCC1954 = tested on: HCC1954
Outline: as §1

T47D = tested on: T47D
Outline: as §1

MCF10F = tested on: MCF10F
Outline: as §1

UACC812 = tested on: UACC812
Outline: as §1

ZR75B = tested on: ZR75B
Outline: as §1

MDAMB175VII = tested on: MDAMB175VII
Outline: as §1

HCC1187 = tested on: HCC1187
Outline: as §1

HCC1937 = tested on: HCC1937
Outline: as §1

CAMA1 = tested on: CAMA1
Outline: as §1

MDAMB453 = tested on: MDAMB453
Outline: as §1

MCF10A = tested on: MCF10A
Outline: as §1

SMILES | -log10 GI50 (HCC38) | -log10 GI50 (MDAMB134VI) | -log10 GI50 (184A1) | -log10 GI50 (MCF7) | -log10 GI50 (MDAMB157) | -log10 GI50 (HCC70) | -log10 GI50 (SUM149PT) | -log10 GI50 (HS578T) | -log10 GI50 (MX1) | -log10 GI50 (HCC1954) | -log10 GI50 (T47D) | -log10 GI50 (MCF10F) | -log10 GI50 (UACC812) | -log10 GI50 (ZR75B) | -log10 GI50 (MDAMB175VII) | -log10 GI50 (HCC1187) | -log10 GI50 (HCC1937) | -log10 GI50 (CAMA1) | -log10 GI50 (MDAMB453) | -log10 GI50 (MCF10A)
CCC[C@H](N[C@H]1CCc2cc(F)cc(F)c2C1)C(=O)Nc1cn(C(C)(C)CNCC(C)(C)C)cn1 | < 4.18 | 4.33 | 5.87 | 4.49 | 4.88 | 5.63 | 6.88 | 4.51 | 5.76 | 4.84 | 4.91 | < 4.18 | < 4.18 | < 4.18 | 5.24 | 5.48 | 4.54 | < 4.18 | 4.59 | < 4.18
CNC(=O)c1c(F)cccc1Nc1nc(Nc2cc3c(cc2OC)CCN3C(=O)CN(C)C)nc2[nH]ccc12 | 5 | 4.96 | 6.4 | 6 | 5.06 | 5.18 | 5.41 | 4.91 | 5.29 | 5.06 | 5.02 | 6.31 | 5.31 | 5.01 | 5.29 | 5.65 | 4.71 | 5.08 | 4.96 | 5.45
COc1ccc(-c2cc3c(C)nc(N)nc3n([C@H]3CC[C@H](OCCO)CC3)c2=O)cn1 | 6.51 | 6.8 | 6.96 | 7.39 | 6.13 | 7.31 | 7.08 | 5.26 | 7.41 | 6.88 | 7.27 | 6.8 | 7.74 | 7.28 | 7.23 | 8.01 | 6.92 | 6.74 | 6.88 | 6.69
COc1ncc(-c2ccc3nccc(-c4ccnnc4)c3c2)cc1NS(=O)(=O)c1ccc(F)cc1F | 7.61 | 7.97 | 8.77 | 8.14 | 6.51 | 8.13 | 7.64 | 7.13 | 8.39 | 8.04 | 8.45 | 8.67 | 8.49 | 8.31 | 8.73 | 8.3 | 7.57 | 7.08 | 8.33 | 8.1
O=C1C(Cl)=C(NCCN2CCOCC2)C(=O)c2ncccc21 | 5.64 | 5.22 | 5.82 | 5.43 | 5.87 | 5.52 | 5.69 | 5.7 | 6.17 | 5.22 | 5.19 | 5.6 | 5.6 | 5.26 | 5.3 | 5.73 | 6.07 | 5.59 | 5.26 | 5.65
Oc1cc(-c2nc(-c3ccccc3)[nH]c2-c2ccncc2)ccc1Cl | 4.77 | 4.85 | 5.06 | < 4.48 | 4.88 | 4.49 | 5.14 | 4.69 | 4.98 | < 4.48 | < 4.48 | 4.92 | 4.9 | 4.51 | 5.09 | 5.07 | 4.84 | 4.4 | < 4.48 | 4.92
Cn1cnc2c(F)c(Nc3ccc(Br)cc3Cl)c(C(=O)NOCCO)cc21 [AZD6244] | < 4.3 | 6.2 | 6.5 | < 4.3 | < 4.3 | 5.75 | 6.32 | 4.75 | 6.34 | 5.84 | < 4.3 | 5.62 | < 4.3 | < 4.3 | 5.59 | < 4.3 | < 4.3 | < 4.3 | < 4.3 | 6.71
O=c1[nH]c2ccccc2n1C1CCN(Cc2ccc(-c3[nH]c4cc5ncnc5cc4nc3-c3ccccc3)cc2)CC1 [Akt inhibitor VIII] | 4.9 | 5.05 | 5.58 | 5.77 | 4.86 | 5.74 | 4.96 | 4.89 | 5.45 | 5.08 | 5.78 | 5.42 | 5.45 | 5.93 | 5.75 | 5.43 | 5 | 5.17 | 5.73 | 5.34
Cn1c(=O)n(-c2ccc(C(C)(C)C#N)cc2)c2c3cc(-c4cnc5ccccc5c4)ccc3ncc21 [BEZ235] | < 4.48 | < 4.48 | 7.19 | < 4.48 | 6.55 | 6.8 | 6.5 | < 4.48 | < 4.48 | 7.28 | 6.55 | < 4.48 | 5.69 | 6.85 | 6.46 | < 4.48 | < 4.48 | 6.67 | 6.92 | 7.26
O=c1cc(-c2ccccc2)oc2cc(O)c(O)c(O)c12 [Baicalein] | 4.52 | 4.07 | < 3.78 | 4.3 | 4.28 | 4.31 | 4.29 | 4.32 | 4.66 | < 3.78 | 4.52 | < 3.78 | 4.19 | 4.36 | 3.96 | 4.94 | 4.46 | 4.39 | 3.8 | 4.71
C#Cc1cccc(Nc2ncnc3cc(OCCOC)c(OCCOC)cc23)c1 [Erlotinib] | < 4.18 | < 4.18 | 6.64 | < 4.18 | < 4.18 | 5.76 | 5.7 | < 4.18 | 5.16 | 5.55 | < 4.18 | 6.54 | 4.91 | < 4.18 | 5.52 | 5.12 | 4.41 | < 4.18 | 4.77 | 5.97
CSCC[C@H](NC(=O)[C@H](Cc1ccccc1)NC[C@@H](NC[C@@H](N)CS)C(C)C)C(=O)O [FTase inhibitor I] | < 4.48 | < 4.48 | < 4.18 | < 4.48 | < 4.18 | < 4.18 | 4.76 | < 4.48 | < 4.48 | < 4.48 | < 4.48 | < 4.48 | < 4.48 | < 4.48 | < 4.48 | < 4.48 | < 4.48 | < 4.48 | < 4.18 | < 4.48
Cc1cncc2cccc(S(=O)(=O)N3CCCN(C(=O)CN)C[C@@H]3C)c12 [Glycyl H1152] | 5.96 | 5.9 | < 4.18 | 4.67 | < 4.18 | 6.04 | 4.57 | 5.82 | 5.96 | < 4.48 | 4.82 | < 4.18 | 4.59 | < 4.18 | < 4.18 | 6.22 | < 4.18 | < 4.48 | 4.58 | 5.28
CCCCCN(C)CCC(O)(P(=O)(O)O)P(=O)(O)O [Ibandronate sodium] | 4.3 | 4.17 | 3.81 | 4.31 | 4.36 | 4.2 | 3.76 | 5.03 | 3.94 | 4.26 | 4.46 | 3.81 | 3.83 | 3.84 | 4.47 | 3.77 | 4.53 | 3.82 | 3.97 | 3.39
Cc1ccc(NC(=O)c2ccc(CN3CCN(C)CC3)cc2)cc1Nc1nccc(-c2cccnc2)n1 [Imatinib] | 4.45 | 4.47 | 4.86 | 4.82 | 4.76 | 4.77 | 4.67 | 4.1 | 4.65 | 5.04 | 4.79 | 4.71 | 4.98 | 4.63 | 5.01 | 4.6 | 4.69 | 4.71 | 4.95 | 4.36
C/C(=C\c1csc(C)n1)[C@@H]1C[C@@H]2O[C@]2(C)CCC[C@H](C)[C@H](O)[C@@H](C)C(=O)C(C)(C)[C@@H](O)CC(=O)N1 [Ixabepilone] | 8.55 | 9 | 6.67 | 9.44 | 8.33 | 8.85 | 8.26 | 8.62 | 8.53 | 8.71 | 8.26 | 8.08 | 5.24 | 6.95 | 7.03 | 8.66 | 6.76 | 9.02 | 8.34 | 8.1
Cc1[nH]c2ccccc2c1CCNCc1ccc(/C=C/C(=O)NO)cc1 [LBH589] | 7.45 | 7.05 | 6.56 | 7.1 | 7.29 | 7.11 | 6.6 | 6.55 | 7.47 | 6.43 | 6.82 | 6.04 | 6.89 | 7.08 | 6.41 | 6.76 | 6.72 | 7.3 | 7.31 | 6.84
C[C@]12O[C@H](C[C@]1(O)CO)n1c3ccccc3c3c4c(c5c6ccccc6n2c5c31)CNC4=O [Lestaurtinib] | 7.06 | 6.33 | 5.87 | 5.84 | 6.46 | 6.71 | 7.12 | 5.99 | 7.17 | 5.31 | 5.25 | 5.72 | 5.75 | 6.34 | 6.09 | 6.13 | 6.21 | 5.42 | 6.19 | 6.26
NS(=O)(=O)OC[C@@H]1C[C@@H](n2ccc3c(N[C@H]4CCc5ccccc54)ncnc32)C[C@@H]1O [MLN4924] | 7.3 | 7.06 | 6.24 | 7.16 | 7.25 | 5.47 | 6.73 | 6.63 | 5.7 | 5.35 | 6.93 | 6.2 | 5.98 | 6.84 | 6.64 | 6.09 | 5.58 | 7.29 | 5.81 | 6.31
NS(=O)(=O)c1ccc(Nc2nc(OCC3CCCCC3)c3[nH]cnc3n2)cc1 [NU6102] | 5.03 | 4.74 | 5.22 | 4.63 | 4.26 | 4.71 | 5.14 | 4.69 | 5.47 | 4.34 | 4.82 | 5 | 4.42 | 4.85 | 4.28 | 5.11 | 4.27 | 4.79 | 4.91 | 5.32
Cc1c(O)cccc1C(=O)N[C@@H](CSc1ccccc1)[C@H](O)CN1C[C@H]2CCCC[C@H]2C[C@H]1C(=O)NC(C)(C)C [Nelfinavir] | 4.78 | 5.06 | 5.48 | 4.8 | 5.09 | 4.75 | 4.98 | 5.07 | 5.15 | 5.01 | 4.88 | 4.99 | < 4.48 | 5.13 | 5.15 | 4.85 | 5.15 | 5.37 | 5.2 | 4.9
COc1ccc(C2=N[C@@H](c3ccc(Cl)cc3)[C@@H](c3ccc(Cl)cc3)N2C(=O)N2CCNC(=O)C2)c(OC(C)C)c1 [Nutlin 3a] | 4.67 | 4.47 | 5.46 | 5.25 | 4.76 | 4.73 | 4.56 | < 4.18 | 4.65 | 4.76 | 4.51 | 5.18 | 5.45 | 5.69 | 5.23 | 4.78 | 4.65 | 4.34 | 4.25 | 5.21
